Source: US7642277B2, “Non-nucleoside reverse transcriptase inhibitors” (Boehringer Ingelheim International GmbH, priority 2002, dated 2010)

How the values were obtained:
[1] = biological target: T1, HIV-1 RT enzyme (wild type) (Human immunodeficiency virus type 1 group M subtype B, UniProt P04585); assay: Reverse transcriptase (RT) enzymatic assay (IC50), PicoGreen fluorescence, wild type; type: biochemical; details: RT enzymatic assay, wild type; read-out: IC50 WT
T1 construct: The reverse transcriptase (RT) enzyme assay has been adapted to a 96-well microtiter plate format
Description: (§1) Reverse Transcriptase (RT) Assays Enzymatic Assay (IC50)
The enzymatic assay employed is described as follows: The reverse transcriptase (RT) enzyme assay has been adapted to a 96-well microtiter plate format and uses PicoGreen™ as a fluorescent intercalator. More explicitly, the HIV-1 RT enzyme was thawed and appropriately diluted into Tris/HCl 50 mM pH 7.8 containing NaCl 60 mM, MgCl2∘6H2O 2 mM, DTT 6 mM, GSH 2 mM and 0.02% w/v Chaps to give ≈10 nM enzyme. […] The plate was pre-incubated for 15 minutes at room temperature before proceeding to the next step. […] Then the enzymatic reaction was initiated by addition of 20 μL of substrate solution. […] After addition of the substrate cocktail, the plate was covered with a plastic seal and incubated for 50 minutes at 37° C. in a dry incubator. The reaction was then quenched by addition of 5 μL of EDTA 0.5 M. The plate was shaken for 30 seconds at medium speed and incubated for 5 minutes at room temperature. Then 160 μL of PicoGreen™ 1:400 dilution from commercial stock (diluted in Tris 20 mM pH 7.5 with EDTA 1 mM) was added and the plate was shaken for 30 seconds and incubated for 10 minutes at room temperature. […] Each row contained at its extremities a blank and a control well.
(§2) Table legend: A=>100; B=100-50; C=<50; NT=not tested

[2] = biological target: T2, HIV-1 RT resistant mutant K103N/Y181C (Human immunodeficiency virus type 1 group M subtype B, UniProt P04585, K690N/Y768C); assay: Reverse transcriptase (RT) enzymatic assay (IC50), PicoGreen fluorescence, resistant mutant; type: biochemical
T2 construct: The reverse transcriptase (RT) enzyme assay has been adapted to a 96-well microtiter plate format
Description: as §1
The enzymatic assay employed is described as follows: The reverse transcriptase (RT) enzyme assay has been adapted to a 96-well microtiter plate format and uses PicoGreen™ as a fluorescent intercalator. More explicitly, the HIV-1 RT enzyme was thawed and appropriately diluted into Tris/HCl 50 mM pH 7.8 containing NaCl 60 mM, MgCl2∘6H2O 2 mM, DTT 6 mM, GSH 2 mM and 0.02% w/v Chaps to give ≈10 nM enzyme. To 10 μL of this enzyme solution was added 10 μL of inhibitor solution (40 μM to […] inhibitor in the same assay buffer as above containing 4% v/v DMSO). The plate was pre-incubated for 15 minutes at room temperature before proceeding to the next step. In this pre-incubation step, the highest and lowest inhibitor concentrations were 20 μM and 1.016 nM respectively and the concentration of DMSO was 2% v/v. Then the enzymatic reaction was initiated by addition of 20 μL of substrate solution. The final reaction mixture contained Tris/HCl 50 mM pH 7.8, NaCl 60 mM, MgCl2∘6H2O 2 mM, DTT 6 mM, GSH 2 mM, CHAPS 0.02% w/v, DMSO 1% v/v, poly rC 45 nM, dG15 4.5 nM, dGTP 3.6 μM, and ≈2.5 nM enzyme. In this incubation step, the highest and lowest inhibitor concentrations were 10 μM and 0.508 nM respectively. After addition of the substrate cocktail, the plate was covered with a plastic seal and incubated for 50 minutes at 37° C. in a dry incubator. The reaction was then quenched by addition of 5 μL of EDTA 0.5 M. The plate was shaken for 30 seconds at medium speed and incubated for 5 minutes at room temperature. Then 160 μL of PicoGreen™ 1:400 dilution from commercial stock (diluted in Tris 20 mM pH 7.5 with EDTA 1 mM) was added and the plate was shaken for 30 seconds and incubated for 10 minutes at room temperature. The plate was then analyzed using a POLARstar Galaxy fluorimeter (BMG Labtechnologies) with λex and λem of 485 nm and 520 nm respectively. […] Each row contained at its extremities a blank and a control well.
as §2

[3] = tested on: HIV-1 (wild type) in C8166 LTRluc cells; assay: C8166 HIV-1 luciferase assay (EC50), wild type; type: cell-based; details: Human immunodeficiency virus 1, C8166 HIV-1 luciferase assay (no *)
Description: (§3) C8166 HIV-1 Luciferase Assay (EC50)
(§4) Plasmid: pGL3 Basic LTR/TAR #12
Plasmid is the pGL3 Basic Vector (a promoterless luciferase expression vector from Promega catalogue #E1751) with the addition of HIV-1 H×B2 LTR sequence from nucleotide −138 to +80 (Sca1-HindIII) upstream of the luciferase gene and the gene for blasticidine resistance cloned in.
(§5) C8166 cells are a human T-lymphotrophic virus type 1 immortalized but nonexpressing line of cord blood lymphocytes and are highly permissive to HIV-1 infection. The reporter cells were made by electroporating C8166 cells with pGL3 Basic LTR/TAR and then selecting positive clones with blasticidine. The clone C8166-LTRluc #A8-F5-G7 was selected by 3 consecutive rounds of limiting dilution under blasticidine selection.
(§6) Media: Complete media consisting of: RPMI 1640+10% FBS+10^−5 M
(§7) β-mercaptoethanol+10 μg/ml gentamycin. Cultures are maintained in complete media with 5 μg/ml blasticidine, however, selection is removed for the assay.
(§8) Luciferase Assay Protocol
(§9) Serial dilutions of HIV-1 inhibitors compounds are prepared in complete media from 10 mM DMSO stock solutions. Eleven serial dilutions of 2.5× are made at 8× desired final concentration in a 1 ml deep well titer plate (96 wells). The 12th well contains complete media with no inhibitor and serves as the positive control. All samples contain the same concentration of DMSO (≦0.1% DMSO). A 25 μl aliquot of inhibitor is added, to triplicate wells, of a 96 well tissue culture treated clear view black microtiter plate (Corning Costar catalogue # 3904). The last row is reserved for uninfected C8166 LTRluc cells to serve as the background blank control and the first row is media alone.
(§10) Count C8166 LTRluc cells and place in a minimal volume of complete RPMI 1640 in a tissue culture flask (ex. 30×10^6 cells in 10 ml media/25 cm^2 flask). Infect cells with HIV-1 at a moi of 0.005. Incubate cells for 1.5 hours at 37° C. on a rotating rack in a 5% CO2 incubator. Resuspend cells in complete RPMI to give a final concentration of 25,000-cells/175 μl. Add 175 μl of cell mix to wells of 96 well microtiter plate containing 25 μl 8× inhibitors. Add 25,000 uninfected C8166-LTRluc cells/well in 200 μl complete RPMI to last row for background control. Incubate cells at 37° C. in 5% CO2 incubator for 3 days.
(§11) Add 50 μl Steady Glo (luciferase substrate T1/2=5 hours Promega catalogue # E2520) to each well of the 96 well plate. Determine the relative light units (RLU) of luciferase using the BMG LUMlstar Galaxy luminometer. Plates are read from the bottom for 2 seconds per well with a gain of 240.
(§12) The level of inhibition (% inhibition) of each well containing inhibitor was calculated with the following equation: […]
The calculated % inhibition values were then used to determine EC50, slope factor (n) and maximum inhibition (Imax) by the non-linear regression routine NLIN procedure of SAS using the following equation: […]
The results are listed in Table 9 as IC50(nM) and EC50 (nM).
as §2

[4] = tested on: HIV-1 resistant mutant K103N/Y181C in C8166 LTRluc cells; assay: C8166 HIV-1 luciferase assay (EC50), resistant mutant; type: cell-based; details: Human immunodeficiency virus 1, C8166, read-out: EC50 K103N/Y181C
Description: as §3, §4, §5, §6, §7, §8
as §9, with “Eleven” for “Serial dilutions of HIV-1 inhibitors compounds are prepared in complete media from 10 mM DMSO stock solutions. Eleven”
as §10, with “Infect cells with HIV-1 at a moi of 0.005.” left out
as §11, §12
The calculated % inhibition values were then used to determine EC50, slope factor (n) and maximum inhibition (Imax) by the non-linear regression routine NLIN procedure of SAS using the following equation:
as §2

Row | Structure (SMILES) | IC50 [1] [nM] | IC50 [2] [nM] | EC50 [3] [nM] | EC50 [4] [nM]
1 | Cc1ccc(-n2nnnc2SCC(=O)Nc2ccc(C(=O)O)cc2Cl)c(Cl)c1 [Entry 503] | < 50 | > 100 | < 50 | > 100
2 | Cc1ccc(-n2nnnc2SCC(=O)Nc2ccc(C(N)=O)cc2Cl)c(Cl)c1 [Entry 504] | < 50 | > 100 | < 50 | < 50
3 | Cc1ccc(-n2nnnc2SCC(=O)Nc2ccc(C(=O)O)cc2Br)c(Cl)c1 [Entry 505] | < 50 | > 100 | < 50 | > 100
4 | Cc1ccc(-n2nnnc2SCC(=O)Nc2ccc(C(=O)O)cc2[N+](=O)[O-])c(Cl)c1 [Entry 507] | < 50 | > 100 | < 50 | > 100
5 | Cc1ccc(-n2nnnc2SCC(=O)Nc2ccc(C(N)=O)cc2[N+](=O)[O-])c(Cl)c1 [Entry 508] | < 50 | 50 to 100 | < 50 | < 50
6 | Cc1ccc(-n2nnnc2SCC(=O)Nc2ccc(S(C)(=O)=O)cc2Cl)c(Cl)c1 [Entry 509] | < 50 | > 100 | < 50 | > 100
7 | Cc1ccc(-n2nnnc2SCC(=O)Nc2ccc(-c3ccccc3)cc2Cl)c(Cl)c1 [Entry 510] | < 50 | 50 to 100 | < 50 | > 100
8 | Cc1ccc(-n2nnnc2SCC(=O)Nc2ccc(-c3ccccc3)cc2C)c(Cl)c1 [Entry 511] | < 50 | > 100 | < 50 | > 100
9 | Cc1ccc(-n2nnnc2SCC(=O)Nc2ccc(-c3cccnc3)cc2Cl)c(Cl)c1 [Entry 512] | < 50 | > 100 | < 50 | > 100
10 | CC(C)(C)c1ccc(-n2nnnc2SCC(=O)Nc2ccc(CCC(=O)O)cc2Cl)c(Cl)c1 [Entry 601] | < 50 | > 100 | < 50 | > 100
11 | Cc1ccc(-n2nnnc2SCC(=O)Nc2cccnc2Cl)c(Cl)c1 [Entry 803] | – | > 100 | < 50 | > 100
